Measured values published in PMC12638379, “An innovative approach to development of new pyrazolylquinolin-2-one hybrids as dual EGFR and BRAF^V600E inhibitors” (Molecular Diversity, 2025).
Where two headings read alike, the source gives them in different places.

What was measured:
NCI 60 cancer cell lines = test: NCI anticancer screening over a panel of 60 cancer cells, single concentration 10 µM; format: cell-based, human; conditions: Homo sapiens, read-out: % Growth Inhibition (GI %)
Method in brief: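 Primary single-dose screen at 10 µM over the NCI panel of 60 human tumour cell lines (leukemia, CNS, lung, colon, kidney, ovary, breast, prostate). The standard NCI Developmental Therapeutics Program protocol was used.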

[1] = system: breast cancer (T47D) cell line; test: MTT antiproliferative assay, T-47D
Procedure: The median inhibitory concentration (IC50) and GI50 (average IC50) against the three cancer cell lines were calculated. See Appendix B.
Cells were cultured using DMEM (Invitrogen/Life Technologies) supplemented with 10% FBS (Hyclone,), 10 ug/ml of insulin (Sigma), and 1% penicillin-streptomycin. Plate cells (cells density 1.2 – 1.8 × 10,000 cells/well) in a volume of 100µl complete growth medium + 100 ul of the tested compound per well in a 96-well plate for 24 hours before the MTT assay. In atypical experiment, one hundred micro liters of serial 10-fold diluted sterile tested compounds were added to final concentrations of […] using culture media as negative control. After 24 h of culture incubation and supernatants discarded. HOP-92 lung, MOLT-4 leukemia, and T-47D breast cell lines were trypsinized and washed with Ca2/Mg2 free PBS (pH 7.2). we removed cultures from incubator into laminar flow hood or other sterile work area. […] Each test should include a blank containing complete medium without cells. […] Add reconstituted MTT in an amount equal to 10% of the culture medium volume. Return cultures to incubator for 2-4 hours depending on cell type and maximum cell density. […] Spectrophotometrically absorbance was measured at a wavelength of 570 nm. Measure the background absorbance of multiwell plates at 690 nm and subtract from the […] measurement. Results from all experiments were recorded and the percentage of viable cells was calculated.

[2] = system: leukemia (MOLT-4) cell line; test: MTT antiproliferative assay, MOLT-4; format: cell-based, human
Procedure: After 24 h of culture incubation and supernatants discarded.

EGFR = molecular target: T1, EGFR (Homo sapiens, UniProt P00533); test: EGFR inhibitory assay; format: biochemical; conditions: for %inh: EGFR, unit not given
T1 construct: EGFR cytoplasmic domain (EGFR-CD, amino acids 645–1186); His6 (N); made in house; host or cells: Sf-9 insect cells (baculovirus)
T1 sequence (P00533 669-1210): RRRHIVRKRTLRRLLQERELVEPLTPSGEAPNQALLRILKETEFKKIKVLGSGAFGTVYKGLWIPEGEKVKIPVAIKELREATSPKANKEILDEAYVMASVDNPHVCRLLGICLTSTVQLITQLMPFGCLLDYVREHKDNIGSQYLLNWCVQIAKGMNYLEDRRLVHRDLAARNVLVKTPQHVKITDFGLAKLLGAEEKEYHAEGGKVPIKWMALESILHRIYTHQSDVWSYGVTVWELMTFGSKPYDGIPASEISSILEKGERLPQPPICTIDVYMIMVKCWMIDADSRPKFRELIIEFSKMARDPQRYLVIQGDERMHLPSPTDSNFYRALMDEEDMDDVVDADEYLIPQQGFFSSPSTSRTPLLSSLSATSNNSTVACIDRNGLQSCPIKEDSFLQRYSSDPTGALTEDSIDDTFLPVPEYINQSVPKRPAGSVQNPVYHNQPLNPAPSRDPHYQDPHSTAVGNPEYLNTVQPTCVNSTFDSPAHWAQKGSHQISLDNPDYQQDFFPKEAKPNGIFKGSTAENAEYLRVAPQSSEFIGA

BRAF^V600E = BRAF^V600E (Homo sapiens, UniProt P15056, V600E); test: BRAF^V600E inhibitory assay (B-Raf (V600E) Kinase Assay); format: biochemical; conditions: read-out: BRAF^V600E inhibition IC50 ± SEM
BRAF^V600E, sequence (P15056 whole entry V600E): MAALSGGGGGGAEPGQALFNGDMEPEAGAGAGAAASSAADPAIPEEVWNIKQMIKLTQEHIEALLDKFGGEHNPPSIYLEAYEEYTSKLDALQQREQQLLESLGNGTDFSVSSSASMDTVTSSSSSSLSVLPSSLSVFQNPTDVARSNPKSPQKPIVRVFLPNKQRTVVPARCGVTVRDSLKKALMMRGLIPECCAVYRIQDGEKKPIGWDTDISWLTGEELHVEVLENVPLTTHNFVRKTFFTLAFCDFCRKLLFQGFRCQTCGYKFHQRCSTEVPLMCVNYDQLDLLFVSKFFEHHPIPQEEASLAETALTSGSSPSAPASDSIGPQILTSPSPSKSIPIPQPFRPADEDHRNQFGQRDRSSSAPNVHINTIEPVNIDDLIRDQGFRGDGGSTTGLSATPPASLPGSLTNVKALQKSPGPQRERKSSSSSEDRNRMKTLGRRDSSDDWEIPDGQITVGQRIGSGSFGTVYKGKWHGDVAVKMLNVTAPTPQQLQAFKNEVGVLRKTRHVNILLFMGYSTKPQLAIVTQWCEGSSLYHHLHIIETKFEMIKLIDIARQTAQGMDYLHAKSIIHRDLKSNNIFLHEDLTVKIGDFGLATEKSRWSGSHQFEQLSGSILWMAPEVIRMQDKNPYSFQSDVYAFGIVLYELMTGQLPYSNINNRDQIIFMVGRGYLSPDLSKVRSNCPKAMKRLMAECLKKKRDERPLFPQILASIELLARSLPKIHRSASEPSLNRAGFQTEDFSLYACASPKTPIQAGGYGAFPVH

[3] = MTT cytotoxicity on normal cell line WI-38; conditions: human, WI-38 normal cells, % viability
normal cell line WI-38 = test: MTT cytotoxicity on normal cell line WI-38

C/C(=N\Nc1ccc(C(=O)O)cc1)c1cnn(-c2cc(=O)[nH]c3ccccc23)c1C [Compound 4f, (E)-4-(2-(1-(5-methyl-1-(2-oxo-1,2-dihydroquinolin-4-yl)-1H-pyrazol-4-yl)ethylidene) hydrazineyl)benzoic acid]
inhibition at 10 µM (NCI 60 cancer cell lines; SK-MEL-28, Melanoma SK-MEL-28, 10 μM): < 5%
inhibition at 10 µM (NCI 60 cancer cell lines; SK-OV-3, Ovarian cancer SK-OV-3, 10 μM): < 5%
inhibition at 10 µM (NCI 60 cancer cell lines; SN12C, Renal cancer SN12C, 10 μM): < 5%
inhibition at 10 µM (NCI 60 cancer cell lines; SNB-19, CNS Cancer SNB-19, 10 μM): < 5%
inhibition at 10 µM (NCI 60 cancer cell lines; SNB-75, CNS Cancer SNB-75, 10 μM): 12.9%
inhibition at 10 µM (NCI 60 cancer cell lines; SW-620, Colon cancer SW-620, 10 μM): < 5%
inhibition at 10 µM (NCI 60 cancer cell lines; T47D, Breast cancer T-47D, 10 μM): < 5%
inhibition at 10 µM (NCI 60 cancer cell lines; TK-10, Renal cancer TK-10, 10 μM): < 5%
inhibition at 10 µM (NCI 60 cancer cell lines; U-251, CNS Cancer U251, 10 μM): < 5%
inhibition at 10 µM (NCI 60 cancer cell lines; UACC-62, Melanoma UACC-62, 10 μM): 6.43%
inhibition at 10 µM (NCI 60 cancer cell lines; UACC-257, Melanoma UACC-257, 10 μM): < 5%
inhibition at 10 µM (NCI 60 cancer cell lines; UO-31, Renal cancer UO-31, 10 μM): 45.2%
viability at 0.4 µM ([1]; Homo sapiens, T47D, T-47D, MTT, 0.4uM): 78.6%
viability at 1.6 µM ([1]; Homo sapiens, T47D, T-47D, MTT, 1.6uM): 72.1%
viability at 6.3 µM ([1]; Homo sapiens, T47D, T-47D, MTT, 6.3uM): 61.4%
viability at 25 µM ([1]; Homo sapiens, T47D, T-47D, MTT, 25uM): 50.1%
viability at 100 µM ([1]; Homo sapiens, T47D, T-47D, MTT, 100uM): 41.1%
IC50 ([1]; Homo sapiens, T47D, read-out: Antiproliferative activity IC50 ± SEM, T-47D, MTT): 28.6 ± 0.99 µM
% viability ([1]; T-47D, MTT, 1.6uM, listed as ws6, 1.6 µM): 72.1271%
% viability ([1]; T-47D, MTT, 6.3uM, listed as ws6, 6.3 µM): 61.3692%
% viability ([1]; T-47D, MTT, 100uM, listed as ws6, 100 µM): 41.0758%
viability at 0.4 µM ([2]; Homo sapiens, MOLT-4, MOLT-4, MTT, 0.4uM): 70.3%
viability at 1.6 µM ([2]; Homo sapiens, MOLT-4, MOLT-4, MTT, 1.6uM): 59.6%
viability at 6.3 µM ([2]; Homo sapiens, MOLT-4, MOLT-4, MTT, 6.3uM): 58.5%
viability at 25 µM ([2]; Homo sapiens, MOLT-4, MOLT-4, MTT, 25uM): 48.1%
viability at 100 µM ([2]; Homo sapiens, MOLT-4, MOLT-4, MTT, 100uM): 39.1%
IC50 ([2]; Homo sapiens, MOLT-4, MTT, read-out: Antiproliferative activity IC50 ± SEM, MOLT-4): 16.3 ± 0.65 µM
% viability ([2]; MOLT-4, MTT, 0.4uM, listed as ws6, 0.4 µM): 70.3059%
% viability ([2]; MOLT-4, MTT, 1.6uM, listed as ws6, 1.6 µM): 59.5561%
% viability ([2]; MOLT-4, MTT, 6.3uM, listed as ws6, 6.3 µM): 58.5483%
% viability ([2]; MOLT-4, MTT, 100uM, listed as ws6, 100 µM): 39.1122%
%inh (EGFR; conc 0.01 (log -2)): 10.6%
%inh (EGFR; conc 0.1 (log -1)): 26%
%inh (EGFR; conc 1 (log 0)): 61.8%
%inh (EGFR; conc 10 (log 1)): 80.6%
%inh (EGFR; conc 100 (log 2)): 92.1%
IC50 (EGFR; read-out: EGFR inhibition IC50 ± SEM): 640 ± 23 nM
IC50 (BRAF^V600E): 410 ± 16 nM
viability at 24 h, 0.4 µM ([3]; WI38, 0.4uM (log conc. -0.41)): 80%
viability at 24 h, 1.6 µM ([3]; WI38, 1.6uM (log conc. 0.19)): 74.5%
viability at 24 h, 6.3 µM ([3]; WI38, 6.3uM (log conc. 0.8)): 65.4%
viability at 24 h, 25 µM ([3]; WI38, 25uM (log conc. 1.4)): 54.9%
viability at 24 h, 100 µM ([3]; WI38, 100uM (log conc. 2)): 41.6%
IC50 (normal cell line WI-38; Homo sapiens, read-out: Antiproliferative activity IC50 ± SEM): 42.1 ± 1.68 µM
% viability (normal cell line WI-38; WI38, 0.4uM (log conc. -0.41), listed as ws6, 0.4 µM): 79.9762%
% viability (normal cell line WI-38; WI38, 1.6uM (log conc. 0.19), listed as ws6, 1.6 µM): 74.5098%
% viability (normal cell line WI-38; WI38, 6.3uM (log conc. 0.8), listed as ws6, 6.3 µM): 65.3595%
% viability (normal cell line WI-38; WI38, 100uM (log conc. 2), listed as ws6, 100 µM): 41.5924%
